This passage reports Activity results from ChEMBL document CHEMBL3044547, “2-Substituted-8-methyl-3,6-dihydroimidazo[4,5-c]pyrazolo[3,4-e]pyridazine as an anti-inflammatory agent” (2011).

Holding throughout (format): functional
Assay [1] relates to Rattus norvegicus. The experiment in a line: Anti-inflammatory activity against carageenaan-induced paw edema in Rattus norvegicus albino (rat) at 100 mg/kg, po administered 1 hr prior to carageenaan-challenge measured up to 3 hr.
The subject of assay [2] is Rattus norvegicus. In words: Anti-inflammatory activity in Rattus norvegicus albino (rat) assessed as carageenaan-induced paw edema at 100 mg/kg, po administered 1 hr prior to carageenaan-challenge measured at 120 min (reference value: 100%).
The test system of assay [3] is Rattus norvegicus. The experiment in a line: Anti-inflammatory activity in Rattus norvegicus albino (rat) assessed as carageenaan-induced paw edema at 100 mg/kg, po administered 1 hr prior to carageenaan-challenge measured at 90 min (reference value: 100%).
Assay [4] deals with Rattus norvegicus. The experiment in a line: Anti-inflammatory activity in Rattus norvegicus albino (rat) assessed as carageenaan-induced paw edema at 100 mg/kg, po administered 1 hr prior to carageenaan-challenge measured at 30 min (reference value: 100%).
The test system of assay [5] is Rattus norvegicus. The experiment in a line: Anti-inflammatory activity in Rattus norvegicus albino (rat) assessed as carageenaan-induced paw edema at 100 mg/kg, po administered 1 hr prior to carageenaan-challenge measured at 180 min relative to control (reference value: 22.3%).
Assay [6] has as its system Rattus norvegicus. The experiment in a line: Anti-inflammatory activity in Rattus norvegicus albino (rat) assessed as carageenaan-induced paw edema at 100 mg/kg, po administered 1 hr prior to carageenaan-challenge measured at 90 min relative to control (reference value: 38.7%).
The subject of assay [7] is Rattus norvegicus. The experiment in a line: Anti-inflammatory activity in Rattus norvegicus albino (rat) assessed as carageenaan-induced paw edema at 100 mg/kg, po administered 1 hr prior to carageenaan-challenge measured at 30 min relative to control (reference value: 30.1%).

Structures are written as SMILES.

As for `CC(C)Cc1ccc(C(C)C(=O)O)cc1` (centres undefined) [IBUPROFEN], the Activity is reported as 49% in the assay with Rattus norvegicus [1], 11.6% in the assay on Rattus norvegicus [2], 108% in the assay with Rattus norvegicus [3] and 101% in the assay with Rattus norvegicus [4].

`Cc1n[nH]c2nnc3nc(-c4ccccc4)[nH]c3c12`: the Activity in the assay with Rattus norvegicus [5] is listed as 14.9%; in the assay on Rattus norvegicus [6], 23.4%; in the assay with Rattus norvegicus [7], 14.1%; with Rattus norvegicus [1] it was 30%.

In the case of `Cc1n[nH]c2nnc3nc(CCC(=O)O)[nH]c3c12`, the Activity stood at 21.4% with Rattus norvegicus [5], 18.4% with Rattus norvegicus [6], 6.5% with Rattus norvegicus [7] and 33% in the assay with Rattus norvegicus [1].

Regarding `Cc1n[nH]c2nnc3nc(CCCCC(=O)O)[nH]c3c12`, the Activity in the assay on Rattus norvegicus [5] amounted to 33.6%; with Rattus norvegicus [6], 46.5%; in the assay with Rattus norvegicus [7], 33.9%; with Rattus norvegicus [1] it was 31%.

Regarding `Cc1n[nH]c2nnc3nc(-c4ccccc4C(=O)O)[nH]c3c12`, the Activity with Rattus norvegicus [5] was found to be 20.6%; with Rattus norvegicus [6], 23.3%; in the assay with Rattus norvegicus [7] it was 15.1%; with Rattus norvegicus [1], 41%.

As to `Cc1n[nH]c2nnc3nc(/C=C\c4ccccc4)[nH]c3c12`, the Activity with Rattus norvegicus [5] was 0.4%; with Rattus norvegicus [6], 6.2%; with Rattus norvegicus [7], 3.9%; in the assay with Rattus norvegicus [1] it was 35%.
